Tests used:
[1] = biological target: BTK-Fas association in NALM-6-UM1 cells (Homo sapiens, UniProt Q06187); experiment: BTK-Fas association, Western blot of BTK immune complexes; format: cell-based; conditions: 10 μM x 4 hours
Procedure: FIGS. 6A-6D: Apoptotic Responses of Human B-lineage Leukemia Cells to Fas Ligation in Relationship to BTK Expression and Function. Anti-BTK and anti-Actin dual-antibody Western blot analysis of whole cell lysates from BTK-positive NALM-6-UM1 (N6-U1) and BTK-deficient RAMOS-1 cells (FIG. 5A). Anti-Fas Western blot analysis of the same cell lysates. [B] Cells were harvested 24 hours after exposure to anti-Fas antibody at 0.1 μg/ml or 1.0 μg/ml concentrations and DNA from Triton-X-100 lysates was analyzed for fragmentation, as described by Uckun, F. M., et al. (1996) Science 273, 1096-1100; and Uckun, F. M., et al. (1995) Science 267, 886-91. […] [C.1] and [C.2] Anti-BTK and anti-Fas Western blot analysis of whole cell lysates from N6-U1 cells treated with the BTK inhibitor LMA-13 (10 μM×4 hours). [C.3] Anti-Fas and Anti-BTK Western blot analysis of anti-BTK antibody immunoprecipitated BTK immune complexes from untreated (=−Inhibitor) and LMA-13-treated (10 μM×4 hours) (=+Inhibitor) N6-U1 cells. [D]. N6-U1 cells were harvested 24 hours after exposure to anti-Fas antibody at 0.1 μg/ml or 1.0 μg/ml concentrations and DNA from Triton-X-100 lysates was analyzed for fragmentation, as described by Uckun, F. M., et al. (1996) Science 273, 1096-1100; and Uckun, F. M., et al. (1995) Science 267, 886-91. […]

[2] = system: JAK2; experiment: Tyrosine kinase assay JAK2 as named in text; format: biochemical; conditions: concentrations as high as 100 μg/ml (~278 μM)
[3] = biological target: T1, Insulin-Receptor Kinase (IRK) (Homo sapiens, UniProt P06213); experiment: Cell-free tyrosine kinase inhibition assay IRK from HepG2 cells; format: biochemical
T1 construct: IRK was immunoprecipitated from the lysates with an anti-IRb antibody
T1 sequence (P06213 28-1382): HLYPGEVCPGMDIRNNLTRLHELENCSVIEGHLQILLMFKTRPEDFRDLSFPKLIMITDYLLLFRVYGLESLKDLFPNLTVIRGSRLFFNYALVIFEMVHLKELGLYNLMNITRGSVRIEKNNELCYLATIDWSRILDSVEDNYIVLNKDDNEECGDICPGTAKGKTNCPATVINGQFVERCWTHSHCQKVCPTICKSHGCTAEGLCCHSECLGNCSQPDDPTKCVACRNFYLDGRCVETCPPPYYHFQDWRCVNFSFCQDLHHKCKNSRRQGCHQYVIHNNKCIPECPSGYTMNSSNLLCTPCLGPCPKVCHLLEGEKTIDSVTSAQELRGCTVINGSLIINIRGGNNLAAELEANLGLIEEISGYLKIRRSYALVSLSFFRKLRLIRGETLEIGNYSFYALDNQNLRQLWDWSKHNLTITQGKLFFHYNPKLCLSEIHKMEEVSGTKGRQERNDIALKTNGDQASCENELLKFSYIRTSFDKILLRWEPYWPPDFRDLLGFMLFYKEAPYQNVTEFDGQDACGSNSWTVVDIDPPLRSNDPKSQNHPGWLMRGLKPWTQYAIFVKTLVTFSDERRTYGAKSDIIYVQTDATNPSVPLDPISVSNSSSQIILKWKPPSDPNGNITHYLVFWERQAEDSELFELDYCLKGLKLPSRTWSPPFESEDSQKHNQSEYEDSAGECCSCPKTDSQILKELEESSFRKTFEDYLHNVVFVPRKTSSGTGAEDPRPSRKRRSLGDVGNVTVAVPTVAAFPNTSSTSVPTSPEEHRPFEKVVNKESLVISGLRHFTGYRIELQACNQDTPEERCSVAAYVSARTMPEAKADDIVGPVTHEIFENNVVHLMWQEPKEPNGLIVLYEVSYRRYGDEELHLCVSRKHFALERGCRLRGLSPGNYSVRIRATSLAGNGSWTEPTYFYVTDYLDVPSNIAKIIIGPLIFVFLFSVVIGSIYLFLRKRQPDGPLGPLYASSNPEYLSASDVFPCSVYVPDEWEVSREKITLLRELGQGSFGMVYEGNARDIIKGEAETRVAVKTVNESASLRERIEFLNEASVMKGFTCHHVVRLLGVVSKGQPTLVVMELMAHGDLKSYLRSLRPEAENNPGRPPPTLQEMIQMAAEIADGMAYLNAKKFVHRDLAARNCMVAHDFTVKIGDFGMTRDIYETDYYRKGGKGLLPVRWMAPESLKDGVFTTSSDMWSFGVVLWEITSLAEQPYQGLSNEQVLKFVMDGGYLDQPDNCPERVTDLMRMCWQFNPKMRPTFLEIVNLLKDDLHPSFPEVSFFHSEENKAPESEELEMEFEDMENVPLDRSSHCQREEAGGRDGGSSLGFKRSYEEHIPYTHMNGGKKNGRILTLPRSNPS

Sequence of BTK-Fas association in NALM-6-UM1 cells (Q06187 2-659): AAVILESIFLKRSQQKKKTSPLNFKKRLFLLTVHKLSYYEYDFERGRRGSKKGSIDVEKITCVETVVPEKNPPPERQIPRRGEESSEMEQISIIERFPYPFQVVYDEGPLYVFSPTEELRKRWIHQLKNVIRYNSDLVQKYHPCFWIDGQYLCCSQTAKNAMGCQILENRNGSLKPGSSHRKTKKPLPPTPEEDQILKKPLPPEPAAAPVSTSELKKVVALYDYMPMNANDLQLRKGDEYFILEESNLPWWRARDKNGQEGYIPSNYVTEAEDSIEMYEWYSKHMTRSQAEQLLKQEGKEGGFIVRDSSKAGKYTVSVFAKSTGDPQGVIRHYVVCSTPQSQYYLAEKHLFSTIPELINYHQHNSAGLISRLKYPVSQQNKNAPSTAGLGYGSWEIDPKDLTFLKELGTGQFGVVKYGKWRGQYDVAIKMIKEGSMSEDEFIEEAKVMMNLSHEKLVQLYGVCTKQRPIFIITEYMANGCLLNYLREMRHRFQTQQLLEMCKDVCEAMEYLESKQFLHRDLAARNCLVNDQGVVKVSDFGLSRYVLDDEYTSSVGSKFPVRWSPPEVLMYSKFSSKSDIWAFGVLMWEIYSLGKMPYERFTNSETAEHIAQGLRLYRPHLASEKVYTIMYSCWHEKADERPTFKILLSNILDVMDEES

## C/C(O)=C(\C#N)C(=O)Nc1cc(Br)ccc1Br [LFM-A13, α-Cyano-β-hydroxy-β-methyl-N-(2,5-dibromophenyl)-propenamide]
[1]
  BTK-Fas association: abrogates the BTK-Fas association
[2]
  effect on enzymatic activity of JAK2: did not affect the enzymatic activity
[3]; IRK
  IC50: > 278 µM
[3]; concentrations as high as 100 μg/ml (~278 μM)
  effect on enzymatic activity of IRK: did not affect the enzymatic activity
